Measured values from patent US10052320B2, “Substituted quinoxalines as FGFR kinase inhibitors” (ASTEX THERAPEUTICS LIMITED, priority 2011, dated 2018).
Where two headings read alike, the source gives them in different places.

How the values were obtained:
[1] = test system: Ba/F3-FGFR1-transfected cells in the presence of 10 ng/ml murine IL3; test: Ba/F3-FGFR1 (plus IL3) cellular proliferation counterscreen, Alamar Blue; type: cell-based; details: for IC50: Mus musculus
In short: (§1)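 Cells (20000 per well in 384-well format or 10000 per well in 96-well format) in phenol red-free RPMI-1640 with 10% FBS were exposed to compound in DMSO for 24 h at 37 °C, 5% CO2. Resazurin-based Alamar Blue was then added for 4 h, and fluorescence was read at ex 540/em 590 nm.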

KDR (h) (VEGFR2) = KDR (h) (VEGFR2) (Homo sapiens, UniProt P35968); test: KDR (VEGFR2) (enzymatic assay), TR-FRET; type: biochemical
In short: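 Enzyme at 150 ng/ml was incubated 120 min at room temperature with 500 nM Btn-Flt3 peptide and 3 μM ATP in 50 mM HEPES pH 7.5, 6 mM MnCl2, 1 mM DTT, 0.1 mM Na3VO4, 0.01% Triton-X-100, 1% DMSO final. EDTA stop with Eu-anti-P-Tyr/SA-XL-665, 60 min; TR-FRET read in RFU.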

[2] = molecular target: Ba/F3-FGFR4-transfected cells (Homo sapiens, UniProt P22455); test: Ba/F3-FGFR4 cellular proliferation assay, Alamar Blue; type: cell-based
In short: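 Ba/F3 cells transfected with FGFR4, 20000 cells/well in phenol red-free RPMI-1640 with 10% FBS, were exposed to compound for 24 h at 37° C, 5% CO2. Alamar Blue (resazurin) was then added for 4 h, and fluorescence was read at ex 540/em 590 nm.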

FGFR3 (h) = FGFR3 (h) (Homo sapiens, UniProt P22607); test: FGFR3 (enzymatic assay), TR-FRET; type: biochemical; details: read-out: FGFR 3 pIC50 (converted)
Procedure: In a final reaction volume of 30 μL, FGFR3 (h) (40 ng/ml) was incubated with 50 mM HEPES pH 7.5, 6 mM MnCl2, 1 mM DTT, 0.1 mM Na3VO4, 0.01% Triton-X-100, 500 nM Btn-Flt3 and 25 μM ATP in the presence of compound (1% DMSO final). […] Time-Resolved Fluorescence Resonance Energy Transfer (TR-FRET) signal (ex340 nm. Em 620 nm, em 655 nm) was measured afterwards and results are expressed in RFU (Relative Fluorescence Units).

FGFR4 (h) = FGFR4 (h) (Homo sapiens, UniProt P22455); test: FGFR4 (enzymatic assay), TR-FRET; type: biochemical; details: read-out: FGFR 4 pIC50 (converted)
Procedure: In a final reaction volume of 30 μL, FGFR4 (h) (60 ng/ml) was incubated with 50 mM HEPES pH 7.5, 6 mM MnCl2, 1 mM DTT, 0.1 mM Na3VO4, 0.01% Triton-X-100, 500 nM Btn-Flt3 and 5 μM ATP in the presence of compound (1% DMSO final). […] Time-Resolved Fluorescence Resonance Energy Transfer (TR-FRET) signal (ex340 nm. Em 620 nm, em 655 nm) was measured afterwards and results are expressed in RFU (Relative Fluorescence Units).

[3] = molecular target: Ba/F3-FGFR1-transfected cells (Homo sapiens, UniProt P11362); test: Ba/F3-FGFR1 (minus IL3) cellular proliferation assay, Alamar Blue; type: cell-based; details: for BAF3-FGFR 1 (MIN IL3) 384 well pIC50: minus IL3, 384 well; for BAF3-FGFR 1 (MIN IL3) 96 well pIC50: minus IL3, 96 well
In short: as §1

FGFR2 (h) = FGFR2 (h) (Homo sapiens, UniProt P21802); test: FGFR2 (enzymatic assay), TR-FRET; type: biochemical; details: read-out: FGFR 2 pIC50 (converted)
Procedure: In a final reaction volume of 30 μL, FGFR2 (h) (150 ng/ml) was incubated with 50 mM HEPES pH 7.5, 6 mM MnCl2, 1 mM DTT, 0.1 mM Na3VO4, 0.01% Triton-X-100, 500 nM Btn-Flt3 and 0.4 μM ATP in the presence of compound (1% DMSO final). […] Time-Resolved Fluorescence Resonance Energy Transfer (TR-FRET) signal (ex340 nm. Em 620 nm, em 655 nm) was measured afterwards and results are expressed in (Relative Fluorescence Units).

[4] = plus IL3, 384 well, read-out: BAF3-FGFR 1 (PLUS IL3) 384 well pIC50 (converted)
[5] = plus IL3, 96 well, read-out: BAF3-FGFR 1 (PLUS IL3) 96 well pIC50 (converted)

FGFR2 (h), sequence (P21802 22-821): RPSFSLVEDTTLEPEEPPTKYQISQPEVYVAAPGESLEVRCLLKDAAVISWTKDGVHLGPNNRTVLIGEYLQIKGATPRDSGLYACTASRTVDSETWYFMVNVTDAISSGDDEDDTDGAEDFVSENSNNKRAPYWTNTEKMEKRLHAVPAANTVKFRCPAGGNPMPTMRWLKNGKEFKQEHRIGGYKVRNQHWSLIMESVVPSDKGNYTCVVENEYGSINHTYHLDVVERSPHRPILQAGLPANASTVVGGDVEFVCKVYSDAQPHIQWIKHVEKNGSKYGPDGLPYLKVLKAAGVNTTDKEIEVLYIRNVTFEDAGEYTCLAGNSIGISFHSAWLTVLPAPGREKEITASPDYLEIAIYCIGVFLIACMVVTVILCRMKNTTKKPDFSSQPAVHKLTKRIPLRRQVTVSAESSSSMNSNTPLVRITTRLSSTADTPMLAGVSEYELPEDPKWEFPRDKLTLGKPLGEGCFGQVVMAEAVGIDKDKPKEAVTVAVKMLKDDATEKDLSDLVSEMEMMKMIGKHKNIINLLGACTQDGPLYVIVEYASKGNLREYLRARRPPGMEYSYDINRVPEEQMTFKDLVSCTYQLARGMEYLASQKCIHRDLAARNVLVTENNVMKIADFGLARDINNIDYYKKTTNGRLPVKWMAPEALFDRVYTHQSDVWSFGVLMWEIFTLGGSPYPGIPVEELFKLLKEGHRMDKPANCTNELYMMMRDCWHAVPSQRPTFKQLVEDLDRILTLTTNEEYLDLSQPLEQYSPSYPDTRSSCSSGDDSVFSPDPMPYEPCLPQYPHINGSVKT
Ba/F3-FGFR1-transfected cells, sequence (P11362 whole entry, change not shown): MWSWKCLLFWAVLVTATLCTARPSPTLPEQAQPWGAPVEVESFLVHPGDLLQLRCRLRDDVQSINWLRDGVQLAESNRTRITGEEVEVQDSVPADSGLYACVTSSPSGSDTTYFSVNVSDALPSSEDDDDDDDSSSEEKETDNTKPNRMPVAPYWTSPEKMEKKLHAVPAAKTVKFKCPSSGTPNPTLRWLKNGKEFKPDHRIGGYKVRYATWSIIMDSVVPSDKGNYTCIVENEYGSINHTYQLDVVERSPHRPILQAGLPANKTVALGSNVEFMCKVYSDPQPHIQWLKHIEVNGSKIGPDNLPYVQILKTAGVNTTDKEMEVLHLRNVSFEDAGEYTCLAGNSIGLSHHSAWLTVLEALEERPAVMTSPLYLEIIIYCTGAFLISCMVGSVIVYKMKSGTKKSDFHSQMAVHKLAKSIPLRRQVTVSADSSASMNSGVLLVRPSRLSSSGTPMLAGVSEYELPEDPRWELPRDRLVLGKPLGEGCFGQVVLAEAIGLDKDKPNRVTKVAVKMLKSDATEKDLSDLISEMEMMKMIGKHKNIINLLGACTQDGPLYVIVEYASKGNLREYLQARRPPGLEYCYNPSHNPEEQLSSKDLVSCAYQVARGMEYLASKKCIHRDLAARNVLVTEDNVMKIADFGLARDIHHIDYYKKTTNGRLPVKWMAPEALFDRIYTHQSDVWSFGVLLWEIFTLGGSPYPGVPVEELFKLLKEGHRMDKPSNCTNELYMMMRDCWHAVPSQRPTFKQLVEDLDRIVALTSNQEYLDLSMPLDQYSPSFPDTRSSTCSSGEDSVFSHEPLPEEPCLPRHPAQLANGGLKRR
FGFR4 (h), sequence (P22455 22-802): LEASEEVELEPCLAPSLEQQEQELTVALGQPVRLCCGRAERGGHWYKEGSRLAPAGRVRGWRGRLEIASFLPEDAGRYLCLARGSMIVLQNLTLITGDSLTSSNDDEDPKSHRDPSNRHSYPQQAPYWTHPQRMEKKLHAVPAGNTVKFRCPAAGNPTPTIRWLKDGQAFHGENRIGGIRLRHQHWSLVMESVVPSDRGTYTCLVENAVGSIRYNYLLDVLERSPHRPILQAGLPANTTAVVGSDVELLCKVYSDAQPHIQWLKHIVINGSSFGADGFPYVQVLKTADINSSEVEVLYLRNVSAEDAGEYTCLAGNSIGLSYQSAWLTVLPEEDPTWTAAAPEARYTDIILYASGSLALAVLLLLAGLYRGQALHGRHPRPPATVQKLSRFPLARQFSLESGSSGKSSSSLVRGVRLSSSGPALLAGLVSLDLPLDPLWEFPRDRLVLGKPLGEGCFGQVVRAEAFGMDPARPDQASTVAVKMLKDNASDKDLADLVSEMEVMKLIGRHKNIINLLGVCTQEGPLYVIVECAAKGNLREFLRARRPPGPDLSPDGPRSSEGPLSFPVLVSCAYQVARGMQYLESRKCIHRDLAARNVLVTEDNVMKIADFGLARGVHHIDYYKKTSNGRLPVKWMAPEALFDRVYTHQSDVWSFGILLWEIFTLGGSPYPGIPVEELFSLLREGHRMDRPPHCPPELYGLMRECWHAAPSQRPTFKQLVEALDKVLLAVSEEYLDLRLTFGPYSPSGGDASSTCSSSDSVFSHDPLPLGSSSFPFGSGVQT
KDR (h) (VEGFR2), sequence (P35968 20-1356): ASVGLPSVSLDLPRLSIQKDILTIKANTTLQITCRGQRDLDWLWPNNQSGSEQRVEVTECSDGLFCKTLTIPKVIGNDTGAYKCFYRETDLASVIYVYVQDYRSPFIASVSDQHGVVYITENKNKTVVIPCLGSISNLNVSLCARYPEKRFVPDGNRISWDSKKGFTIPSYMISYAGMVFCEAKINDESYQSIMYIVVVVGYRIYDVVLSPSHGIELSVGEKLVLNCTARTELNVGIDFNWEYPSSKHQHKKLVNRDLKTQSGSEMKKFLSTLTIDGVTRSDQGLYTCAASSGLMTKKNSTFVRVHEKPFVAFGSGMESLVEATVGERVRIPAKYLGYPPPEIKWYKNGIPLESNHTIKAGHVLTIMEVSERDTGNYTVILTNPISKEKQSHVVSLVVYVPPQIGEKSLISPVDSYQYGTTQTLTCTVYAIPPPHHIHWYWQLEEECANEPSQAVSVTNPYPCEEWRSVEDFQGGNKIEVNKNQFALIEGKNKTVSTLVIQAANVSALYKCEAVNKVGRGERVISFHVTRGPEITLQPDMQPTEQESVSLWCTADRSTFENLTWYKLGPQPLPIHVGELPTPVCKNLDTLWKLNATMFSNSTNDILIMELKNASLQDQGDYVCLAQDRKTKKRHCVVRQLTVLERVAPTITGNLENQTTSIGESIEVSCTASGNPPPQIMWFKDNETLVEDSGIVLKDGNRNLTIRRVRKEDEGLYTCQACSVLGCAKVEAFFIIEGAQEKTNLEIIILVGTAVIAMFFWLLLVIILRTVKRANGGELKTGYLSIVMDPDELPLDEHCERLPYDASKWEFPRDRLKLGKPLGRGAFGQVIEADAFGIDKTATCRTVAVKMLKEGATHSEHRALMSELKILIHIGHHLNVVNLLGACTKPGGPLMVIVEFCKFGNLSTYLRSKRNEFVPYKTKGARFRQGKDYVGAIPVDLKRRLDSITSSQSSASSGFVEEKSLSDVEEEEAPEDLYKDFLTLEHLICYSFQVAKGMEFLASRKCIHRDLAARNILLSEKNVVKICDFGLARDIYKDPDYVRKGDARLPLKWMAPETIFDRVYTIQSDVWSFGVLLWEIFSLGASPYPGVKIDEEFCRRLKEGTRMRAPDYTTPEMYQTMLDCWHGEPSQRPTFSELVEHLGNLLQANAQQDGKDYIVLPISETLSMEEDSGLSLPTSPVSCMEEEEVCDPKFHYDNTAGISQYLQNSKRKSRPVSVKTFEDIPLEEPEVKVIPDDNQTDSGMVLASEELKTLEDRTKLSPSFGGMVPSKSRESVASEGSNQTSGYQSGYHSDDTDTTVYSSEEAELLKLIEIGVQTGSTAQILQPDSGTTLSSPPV
Ba/F3-FGFR4-transfected cells, sequence (P22455 whole entry, change not shown): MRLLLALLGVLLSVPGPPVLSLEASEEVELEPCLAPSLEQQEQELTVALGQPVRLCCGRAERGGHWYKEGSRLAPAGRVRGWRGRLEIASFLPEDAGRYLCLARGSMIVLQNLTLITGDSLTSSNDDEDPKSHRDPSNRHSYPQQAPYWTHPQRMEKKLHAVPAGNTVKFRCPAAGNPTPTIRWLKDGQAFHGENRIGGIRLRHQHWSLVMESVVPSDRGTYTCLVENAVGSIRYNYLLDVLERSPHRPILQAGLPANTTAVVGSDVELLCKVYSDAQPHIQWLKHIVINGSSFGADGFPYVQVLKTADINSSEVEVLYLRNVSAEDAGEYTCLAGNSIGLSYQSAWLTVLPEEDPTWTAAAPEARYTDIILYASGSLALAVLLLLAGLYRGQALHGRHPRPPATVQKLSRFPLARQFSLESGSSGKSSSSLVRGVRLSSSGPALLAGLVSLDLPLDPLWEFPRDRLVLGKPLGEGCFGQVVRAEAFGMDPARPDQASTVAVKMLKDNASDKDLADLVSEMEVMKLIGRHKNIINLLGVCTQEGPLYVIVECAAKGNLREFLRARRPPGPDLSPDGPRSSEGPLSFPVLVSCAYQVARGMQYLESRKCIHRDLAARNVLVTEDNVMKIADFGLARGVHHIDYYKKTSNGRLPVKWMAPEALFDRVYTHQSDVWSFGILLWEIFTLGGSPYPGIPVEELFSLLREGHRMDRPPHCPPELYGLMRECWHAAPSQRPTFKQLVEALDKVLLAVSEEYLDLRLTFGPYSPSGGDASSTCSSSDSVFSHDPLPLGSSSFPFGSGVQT

SMILES	IC50 [1, 4] [nM]	IC50 (KDR (h) (VEGFR2)) [nM]	BAF3-FGFR4 pIC50 [2]	IC50 (FGFR3 (h)) [nM]	IC50 (FGFR4 (h)) [nM]	BAF3-FGFR 1 (MIN IL3) 384 well pIC50 [3]	IC50 (FGFR2 (h)) [nM]	IC50 [1, 5] [nM]	BAF3-FGFR 1 (MIN IL3) 96 well pIC50 [3]	BAF3-FGFR 1 (PLUS IL3) 384 well pIC50 ([1]; plus IL3, 384 well)
COc1cc(OC)cc(N(CC(OC(C)=O)C(F)(F)F)c2ccc3ncc(-c4cccnc4)nc3c2)c1 (single isomer, unassigned) [Compound 45]	> 10000	> 1000								
COc1cc(OC)cc(N(CCCO)c2ccc3ncc(-c4ccnc(C(=O)NCCCCN)c4)nc3c2)c1 [Compound 126]		661	5.1	17.8	117	5.31	33.1			
CNC(=O)c1cc(-c2cnc3ccc(N(CCN4CCCC4CO)c4cc(OC)cc(OC)c4)cc3n2)ccn1 (stereo not drawn) [Compound 109]		200	6.2	11.7	251	6.63	6.31			
CNCCN(c1cc(OC)cc(OC)c1)c1ccc2ncc(-c3ccc(NC(=O)OC(C)(C)C)nc3)nc2c1 [Compound 81]		209	5.9	10	63.1	5.66	5.5			
COc1cc(OC)cc(N(CC2CC2)c2ccc3ncc(-c4ccn(CCO)c4)nc3c2)c1 [Compound 56]	> 10000	151						> 10000		
COc1cc(OC)cc(N(CC2CC2)c2ccc3ncc(C(=O)NCCN4CCOCC4)nc3c2)c1 [Compound 96]		> 1000	<5	550	> 1000	<5	~912			
COc1cc(OC)cc(N(CC2CC2)c2ccc3ncc(-c4ccn(C)c4)nc3c2)c1 [Compound 73]	> 10000	295						> 10000		
COc1cc(OC)cc(N(CC2CC2)c2ccc3ncc(Nc4nccs4)nc3c2)c1 [Compound 98]		> 1000	<5	191	> 1000	<5	676			
COc1cc(OC)cc(N(CCCO)c2ccc3ncc(-c4ccc(N(C)C(=O)OC(C)(C)C)nc4)nc3c2)c1 [Compound 125]		> 1000	<5	81.3	174	5.37	309			
COc1cc(OC)cc(N(CC2CC2)c2ccc3ncc(-c4ccc5c(ccn5C)c4)nc3c2)c1 [Compound 20]	> 10000	> 10000								
COc1cc(OC)cc(N(CC2CC2)c2ccc3ncc(Nc4nncs4)nc3c2)c1 [Compound 102]		> 1000	<5	> 1000	> 1000	<5	> 1000		<5	
COc1cc(OC)cc(N(CC2CC2)c2ccc3ncc(-c4cccn4C)nc3c2)c1 [Compound 103]		> 1000	<5	~1000	> 1000	<5	> 1000		<5	
COc1cc(OC)cc(N(CC(O)C(F)(F)F)c2ccc3ncc(-c4cccnc4)nc3c2)c1 (single isomer, unassigned) [Compound 53]	> 10000	363								
COc1cc(OC)cc(N(CCNC(C)C)c2ccc3ncc(-c4ccccc4)nc3c2)c1 [Compound 121]		49	6.4	5.89	7.94	6.45	3.72			
COc1cc(OC)cc(N(CC2CC2)c2ccc3ncc(Nc4cnn(C)c4)nc3c2)c1 [Compound 61]	> 10000	> 1000						6920		
COc1cc(OC)cc(N(CCCO)c2ccc3ncc(-c4ccc(N5CCOCC5)nc4)nc3c2)c1 [Compound 124]	> 10000	102	6.1	3.39	33.1	6.24				
COc1cc(OC)cc(N(CC2CC2)c2ccc3ncc(-c4nccs4)nc3c2)c1 [Compound 97]		> 10000	<5	676	1050	<5	2000			
COc1cc(OC)cc(N(CC2CC2)c2ccc3ncc(-c4nnn(C)n4)nc3c2)c1 [Compound 82]		> 1000	<5	148	> 1000	<5	229		5.03	
COc1cc(OC)cc(N(CC(OC(C)=O)C(F)(F)F)c2ccc3ncc(-c4cccnc4)nc3c2)c1 (single isomer, unassigned) [Compound 75]										<5
COc1cc(OC)cc(N(CC2CC2)c2ccc3ncc(-c4cn(C)nn4)nc3c2)c1 [Compound 71]	> 10000	813						> 10000		
COc1cc(OC)cc(N(CC(O)C(F)(F)F)c2ccc3ncc(-c4cccnc4)nc3c2)c1 (single isomer, unassigned) [Compound 54]		794								<5
COc1cc(OC)cc(N(CC2CC2)c2ccc3ncc(-c4ccnn4C)nc3c2)c1 [Compound 18]	> 10000	> 10000						> 10000		
COc1cc(OC)cc(N(CC2CC2)c2ccc3ncc(-c4cnn(C)n4)nc3c2)c1 [Compound 70]	> 10000	> 1000						> 10000		
COc1cc(OC)cc(N(CC2CC2)c2ccc3ncc(-c4cc[nH]c4)nc3c2)c1 [Compound 36]	> 10000	676						> 10000		
COc1cc(OC)cc(N(CC2CC2)c2ccc3ncc(-c4cn(C)cn4)nc3c2)c1 [Compound 21]	> 10000	708						> 10000		
